Data as given in patent publication US12485263B2, “Device for delivering an antimicrobial composition into a medical device” (ICU Medical, Inc., priority 2018, dated 2025).

Columns and labels:
[1] = test system: Gram positive bacteria, Gram negative bacteria, and fungi; experiment: Kill of microbes by dissolved chlorhexidine / chlorhexidine acetate (stated, no test protocol)
[2] = 60 kilogram person; cited from earlier work

SMILES: CC(=O)O.CC(=O)O.NC(=N\CCCCCC/N=C(N)/N=C(\N)Nc1ccc(Cl)cc1)/N=C(\N)Nc1ccc(Cl)cc1 [chlorhexidine acetate]
- concentration that can quickly kill most microbes ([1]; Gram positive bacteria, Gram negative bacteria, and fungi): greater than 200 μg/mL
- time to kill microbes ([1]; at concentration greater than 200 μg/mL, in many cases): under 1 minute
- dose considered safe for direct injection into bloodstream [2]: ≥ 500 µg
